Consider 1 molecule from US20080098491A1, “MOUSE MODELS TO STUDY CACHEXIA” (ZOLTAN LABORATORIES LLC, priority 2006, published 2008).

SMILES strings stand for the structures.

The subject of the test is MXT mouse mammary tumor. Briefly: Cisplatin-treated MXT mouse mammary tumor model, purified PALP, AT, holo-TF, apo-TF (Example 9, Experiment 2). To be noted: every second day from day 7 (6-times): cisplatin 3-mg/kg i.p., proteins 12-mg/kg s.c. It is filed as in vivo. An excerpt:
The B16 mouse melanoma and MXT mouse mammary tumors were developed in first generation hybrid BDF1 (C57 B1 female×DBA/2 male) adult female mice kept at specified pathogen free (SPF) hygienic level. These models were chosen for these experiments because these mice have the complete immune system, and both tumors grow very rapidly. To develop the tumors, B16 and MXT tumor tissue fragments of about 0.1-cm^3 were surgically implanted subcutaneously into the intrascapular region to develop the tumors. Each tumor fragment contained about 1-1.5×10^6 cells. The animals were kept in macrolon cages on ventilated rack at 22-24° C. (50-60% humidity) with lighting regimen of 12/12 h light/dark. The animals had free access to tap water and were fed with sterilized standard diet (Charles River VRF1, Germany) ad libitum. The animals were taken care of according to the “Guiding Principle for the care and use of Animals” based upon the Helsinki declaration and they were approved by the local ethical committee.
In case of both tumor models the tumor size was usually in the range of 0.2 to 0.5-g when treatments started 7-11 days after tumor implantation; the mice were selected so that in the same treatment group the difference in tumor size was no greater than 0.1 gram. In some experiments, the test proteins were suspended in physiological saline and injected in 50-μl volume subcutaneously in the vicinity of tumor (within 1-cm of tumor margin). In other experiments, the test proteins were dispersed in Vaselinum cholesteratum and used topically; 150-mg cream was applied on the tumor and the vicinity of tumor area (with about 0.5-cm of the tumor margin). The tumor volume was determined by using calipers; this technique is well known to one having ordinary skill in the art. Tumor volume was calculated according to the generally accepted formula: V=a^2×b×7r/6, where “a” and “b” mean the shortest and longest diameter, respectively, of the measured tumor.
Experiment 2. The commercial PALP used in this model for Exp. 1 was composed of PALP (˜10%), TF (˜12%), AT (˜30%), albumin (˜35%) and the degradation products of TF (˜13%). […] In this experiment, it was determined whether the other two major proteins, i.e. TF and AT, present in the commercial PALP preparation in addition to PALP, also influence cisplatin-induced loss of body weight or not. The mouse MXT mammary tumor was developed as described in Example 3. In the first group, animals remained untreated during the whole observation period. In the second group, starting on the 7th day after tumor implantation, mice were administered 3-mg per 1-kg of cisplatin i.p. 6-times every second day. In the third group, starting on the 7th day after tumor implantation, mice were simultaneously administered 3-mg per 1-kg of cisplatin i.p. and 12-mg per 1-kg of purified PALP s.c. In the fourth group, starting on the 7th day after tumor implantation, mice were simultaneously administered 3-mg per 1-kg of cisplatin i.p. and 12-mg per 1-kg of highly purified AT s.c. In the fifth group, starting on the 7th day after tumor implantation, mice were simultaneously administered 3-mg per 1-kg of cisplatin i.p. and 12-mg per 1-kg of commercial holo-TF (h-TF, T 0665 in the Sigma catalog) s.c. In the sixth group, starting on the 7th day after tumor implantation, mice were simultaneously administered 3-mg per 1-kg of cisplatin i.p. and 12-mg per 1-kg of commercial apo-TF (a-TF, T 2036 in the Sigma catalog) s.c. Holo-TF contained 1,100-1,600 μg iron per gram protein while apo-TF was essentially iron-free. Each treatment with the proteins was also performed 6-times on every second day simultaneously with the cisplatin treatment. Each group included 7 animals. The mean values for total weight, tumor weight and body weight (the difference between total and tumor weight) are shown in gram in TABLE 7.

Regarding `N.N.[Cl][Pt][Cl]` [Cisplatin, cisplatin], the “Body weight (total weight minus tumor weight)” value runs as follows: (day 7 after transplantation) 22.25 g; (day 11 after transplantation) 21.25 g; (day 13 after transplantation) 20.05 g; (day 15 after transplantation) 18.1 g; (day 18 after transplantation) 16.8 g. The same molecule came in with a Total weight (day 7 after transplantation) of 22.6 g; a Total weight (day 11 after transplantation) of 22.7 g; a Total weight (day 13 after transplantation) of 21.9 g; a Total weight (day 15 after transplantation) of 20.8 g; a Total weight (day 18 after transplantation) of 20.3 g. The molecule further yielded a Tumor weight (day 7 after transplantation) of 0.35 g; a Tumor weight (day 11 after transplantation) of 1.45 g; a Tumor weight (day 13 after transplantation) of 1.85 g; a Tumor weight (day 15 after transplantation) of 2.7 g; a Tumor weight (day 18 after transplantation) of 3.5 g.
